This is an account of results in patent US20250051319A1 (AUGUSTINE THERAPEUTICS, priority 2021, published 2025).

A value given as a limit tells only on which side of the number the result lay.

For orientation: IC50 means the concentration that gives 50% inhibition.

catalytic domain 2 (CD2) of HDAC6, sequence (Q9UBN7 482-800): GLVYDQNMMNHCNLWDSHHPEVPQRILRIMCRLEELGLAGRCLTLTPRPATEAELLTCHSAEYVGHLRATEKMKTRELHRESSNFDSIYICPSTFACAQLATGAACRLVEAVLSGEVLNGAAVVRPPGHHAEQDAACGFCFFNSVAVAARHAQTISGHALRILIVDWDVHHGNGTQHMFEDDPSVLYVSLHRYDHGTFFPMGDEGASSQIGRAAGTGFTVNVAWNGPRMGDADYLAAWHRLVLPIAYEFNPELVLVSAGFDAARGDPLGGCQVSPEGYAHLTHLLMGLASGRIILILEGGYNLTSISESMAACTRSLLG

In the assay the target is catalytic domain 2 (CD2) of HDAC6 (Homo sapiens (Human), UniProt Q9UBN7). In words: Cellular target engagement assay - NanoBRET. Format: cell-based. The following applies: NanoLuc-HDAC6(CD2) in HEK293T cells, 2 hours, read-out: IC50 (HDAC6(CD2) interaction). The procedure:
NanoBRET target engagement was performed against the catalytic domain 2 (CD2) of HDAC6, with minor modifications of kit manufacturer protocol (Promega). Expression of exogenous NanoLuc-HDAC6(CD2) fusion and in HEK293T was achieved following transient transfection with FuGENE HD Transfection Reagent (Promega). The intracellular target engagement assay on HDAC6(CD2) was performed in a 384-well plate format with 8,000 cells per well and a tracer concentration of 0.125 μM or 0.600 μM for HDAC6(CD2). Compounds (dissolved in 100% DMSO) or DMSO (vehicle) were added either manually by diluting them in culture medium at 8× final assay concentration and then adding 5 μL to assay plate or in an automated way by adding […] compound to 5 μL OptiMEM without phenol red (Gibco) using the Echo650 (Labcyte). Tracer solution was added to the cells before seeding 35 μL cell/tracer mixture in the assay plate. The final reaction volume was 40 μL, final DMSO concentration was 1.4% (manual compound addition) or 1.25% (automated compound addition). Assay plates were incubated at 37° C. in a humidified atmosphere containing 5% C02 for 2 hours. The NanoBRET Nano-glo Substrate/Inhibitor was prepared by diluting NanoBRET Nano-Glo Substrate (1:332) and Extracellular Inhibitor (1:1000) in assay medium (Promega). […] BRET ratios were calculated from acceptor/donor signal ratio (mBRET=acceptor/donor*1000) and normalized for each plate. Percentage inhibition was calculated by setting the mBRET obtained with cells without tracer to 100%, while the mBRET obtained with uninhibited cells with tracer was set to 0%. IC50-values were calculated from the percentage inhibition with the log(inhibitor) vs. response—Variable slope (four parameters) nonlinear regression in GraphPad Prism software.
(In BRET a luciferase serves as donor, and the signal depends on an acceptor being close.)
As for `COc1ccc2nc(C)nc(SCC(=O)c3ccc(CN4CCOCC4=O)s3)c2c1` [Example 137, 4-((5-(2-((6-methoxy-2-methylquinazolin-4-yl)thio)acetyl)thiophen-2-yl)methyl)morpholin-3-one], the concentration for half-maximal inhibition (IC50) fell in the range of 100 to 500 nM.
The same measure for `Cn1ncc2c(SCC(=O)c3ccc(CNC(=O)C(C)(C)C)s3)ncnc21` [Compound 102, N-((5-(2-((1-methyl-1H-pyrazolo[3,4-d]pyrimidin-4-yl)thio)acetyl)thiophen-2-yl)methyl)pivalamide]: 100 to 500 nM; for `O=C(CO)NCc1ccc(C(=O)CSc2nccc3ccncc23)s1` [Example 180, N-((5-(2-((2,7-naphthyridin-1-yl)thio)acetyl)thiophen-2-yl)methyl)-2-hydroxyacetamide]: 100 to 500 nM; for `CC(=O)NCc1ccc(C(=O)CSc2ncnc3c2cnn3C)s1` [Example 103, N-((5-(2-((1-methyl-1H-pyrazolo[3,4-d]pyrimidin-4-yl)thio)acetyl)thiophen-2-yl)methyl)acetamide]: 500 to 1000 nM.
Next, `Cc1cc2nc(C(F)(F)F)nc(SCC(=O)c3ccc(CNC(=O)CO)s3)n2n1` [Compound 107, 2-hydroxy-N-((5-(2-((7-methyl-2-(trifluoromethyl)pyrazolo[1,5-a][1,3,5]triazin-4-yl)thio)acetyl)thiophen-2-yl)methyl)acetamide]: 100 to 500 nM.
The same measure for `Cn1ncc2c(SCC(=O)c3ccc(CNS(=O)(=O)C4CC4)s3)ncnc21` [Compound 89, N-((5-(2-((1-methyl-1H-pyrazolo[3,4-d]pyrimidin-4-yl)thio)acetyl)thiophen-2-yl)methyl)cyclopropanesulfonamide]: 1000 to 10000 nM.
As to `Cc1nc(SCC(=O)c2ccc(CNC(=O)CO)s2)c2cc(N(C)C)ncc2n1` [Compound 149, N-((5-(2-((6-(dimethylamino)-2-methylpyrido[3,4-d]pyrimidin-4-yl)thio)acetyl)thiophen-2-yl)methyl)-2-hydroxyacetamide], the concentration for half-maximal inhibition (IC50) is not above 100 nM.
Next, `Cc1nc(SCC(=O)c2ccc(CNC(=O)CO)s2)c2cn(C)nc2n1` [Compound 65, N-((5-(2-((2,6-dimethyl-2H-pyrazolo[3,4-d]pyrimidin-4-yl)thio)acetyl)thiophen-2-yl)methyl)-2-hydroxyacetamide]: 500 to 1000 nM.
The same measure for `Cc1nc(SCC(=O)c2ccc(CNC(=O)CO)s2)c2cc(N3CCOCC3)ccc2n1` [Compound 81, 2-hydroxy-N-((5-(2-((2-methyl-6-morpholinoquinazolin-4-yl)thio)acetyl)thiophen-2-yl)methyl)acetamide]: not above 100 nM; for `O=C(CSc1nc(C(F)(F)F)nc2ccc(N3CCOCC3)cc12)c1ccc(CNC(=O)C2(O)CC2)s1` [Compound 47, 1-hydroxy-N-((5-(2-((6-morpholino-2-(trifluoromethyl)quinazolin-4-yl)thio)acetyl)thiophen-2-yl)methyl)cyclopropane-1-carboxamide]: 100 to 500 nM; for `O=C(CO)NCc1ccc(C(=O)CSc2nccc3ncccc23)s1` [Example 179, N-((5-(2-((1,6-naphthyridin-5-yl)thio)acetyl)thiophen-2-yl)methyl)-2-hydroxyacetamide]: 100 to 500 nM.
Turning to `O=C(CSc1nc2nc(C(F)(F)F)ccc2o1)c1ccc(CNC(=O)C2(O)CC2)s1` [Compound 45, 1-hydroxy-N-((5-(2-((5-(trifluoromethyl)oxazolo[4,5-b]159yrrolid-2-yl)thio)acetyl)thiophen-2-yl)methyl)cyclopropane-1-carboxamide], the concentration for half-maximal inhibition (IC50) is not above 100 nM.
Next, `COc1cnc2nc(C)nc(SCC(=O)c3ccc(CN(C)C(=O)CO)s3)c2c1` [Compound 162, 2-hydroxy-N-((5-(2-((6-methoxy-2-methylpyrido[2,3-d]pyrimidin-4-yl)thio)acetyl)thiophen-2-yl)methyl)-N-methylacetamide]: 100 to 500 nM; `Cc1nc(SCC(=O)c2ccc(CNC(=O)C(C)(C)C)s2)c2ncccc2n1` [Example 18, N-((5-(2-((2-methylpyrido[3,2-d]pyrimidin-4-yl)thio)acetyl)thiophen-2-yl)methyl)pivalamide]: 100 to 500 nM; `COc1ccc2nc(C)nc(SCC(=O)c3ccc(CNC(=O)[C@@H](C)O)s3)c2c1` [Compound 186, (R)-2-hydroxy-N-((5-(2-((6-methoxy-2-methylquinazolin-4-yl)thio)acetyl)thiophen-2-yl)methyl)propanamide]: 100 to 500 nM.
Take `COc1ccc2nc(C(F)(F)F)nc(SCC(=O)c3ccc(CNC(=O)CO)s3)c2c1` [Compound 80, 2-hydroxy-N-((5-(2-((6-methoxy-2-(trifluoromethyl)quinazolin-4-yl)thio)acetyl)thiophen-2-yl)methyl)acetamide]: the IC50 is not above 100 nM.
The same measure for `Cn1ncc2c(SCC(=O)c3ccc(C4CCN(C(=O)CO)C4)s3)ncnc21` (stereo not shown) [Compound 86, 2-hydroxy-1-(3-(5-(2-((1-methyl-1H-pyrazolo[3,4-d]pyrimidin-4-yl)thio)acetyl)thiophen-2-yl)157yrrolidine-1-yl)ethan-1-one]: 1000 to 10000 nM; for `O=C(CSc1nc(C(F)(F)F)nc2ncccc12)c1ccc(CN2CCCC2=O)s1` [Example 157, 1-((5-(2-((2-(trifluoromethyl)pyrido[2,3-d]pyrimidin-4-yl)thio)acetyl)thiophen-2-yl)methyl)pyrrolidin-2-one]: not above 100 nM; for `Cc1nc(SCC(=O)c2ccc(CNC(=O)CO)s2)c2ccccc2n1` [Compound 66, 2-hydroxy-N-((5-(2-((2-methylquinazolin-4-yl)thio)acetyl)thiophen-2-yl)methyl)acetamide]: not above 100 nM.
The same measure for `COc1ccc2nc(C)nc(SCC(=O)c3ccc(CNC(=O)C4(O)CC4)s3)c2c1` [Compound 50, 1-hydroxy-N-((5-(2-((6-methoxy-2-methylquinazolin-4-yl)thio)acetyl)thiophen-2-yl)methyl)cyclopropane-1-carboxamide]: 100 to 500 nM; for `Cn1ncc2c(SCC(=O)c3ccc(C4CCN(S(N)(=O)=O)C4)s3)ncnc21` (stereo not shown) [Compound 96, 3-(5-(2-((1-methyl-1H-pyrazolo[3,4-d]pyrimidin-4-yl)thio)acetyl)thiophen-2-yl)pyrrolidine-1-sulfonamide]: 500 to 1000 nM; for `Cn1ncc2c(SCC(=O)c3ccc(CNC(=O)C(C)(C)O)s3)ncnc21` [Compound 52, 2-hydroxy-2-methyl-N-((5-(2-((1-methyl-1H-pyrazolo[3,4-d]pyrimidin-4-yl)thio)acetyl)thiophen-2-yl)methyl)propanamide]: 500 to 1000 nM.
As to `COc1cccc2nc(C)nc(SCC(=O)c3ccc(CNC(=O)CO)s3)c12` [Compound 143, 2-hydroxy-N-((5-(2-((5-methoxy-2-methylquinazolin-4-yl)thio)acetyl)thiophen-2-yl)methyl)acetamide], the IC50 was in the range of 100 to 500 nM.
For `COc1ccc2nc(C(F)(F)F)nc(SCC(=O)c3ccc(CNC(=O)C(C)(C)O)s3)c2c1` [Compound 134, 2-hydroxy-N-((5-(2-((6-methoxy-2-(trifluoromethyl)quinazolin-4-yl)thio)acetyl)thiophen-2-yl)methyl)-2-methylpropanamide], the IC50 is 100 to 500 nM.
Regarding `O=C(CO)NCc1ccc(C(=O)CSc2nccn3ccnc23)s1` [Example 176, 2-hydroxy-N-((5-(2-(imidazo[1,2-a]pyrazin-8-ylthio)acetyl)thiophen-2-yl)methyl)acetamide], the half-inhibitory concentration (IC50) was in the range of 1000 to 10000 nM.
